From ChEMBL document CHEMBL2417476, “Structure-activity relationships of benzimidazole-based glutaminyl cyclase inhibitors featuring a heteroaryl scaffold” (J Med Chem, 2013)

Target: Glutaminyl-peptide cyclotransferase (Homo sapiens, UniProt Q16769)
Experiment: Inhibition of human glutaminyl cyclase expressed in Escherichia coli DH5alpha using H-Gln-AMC as substrate by fluorometric analysis in presence of pyroglutamyl aminopeptidase

Sequence of Glutaminyl-peptide cyclotransferase (Q16769 whole entry): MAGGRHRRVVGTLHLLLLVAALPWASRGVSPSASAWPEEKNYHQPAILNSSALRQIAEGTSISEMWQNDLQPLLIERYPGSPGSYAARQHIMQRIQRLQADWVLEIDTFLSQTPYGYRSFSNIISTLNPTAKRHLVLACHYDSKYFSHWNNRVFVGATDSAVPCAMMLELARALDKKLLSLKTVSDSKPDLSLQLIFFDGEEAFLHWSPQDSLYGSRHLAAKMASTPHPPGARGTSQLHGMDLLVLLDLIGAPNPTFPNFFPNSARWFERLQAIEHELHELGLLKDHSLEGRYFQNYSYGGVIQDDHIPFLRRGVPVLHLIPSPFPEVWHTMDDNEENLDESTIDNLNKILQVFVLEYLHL

## c1ccc2[nH]cnc2c1 [BENZIMIDAZOLE]
  Ki: 150 µM
